From US20230159510A1, “NOVEL PRMT5 INHIBITORS” (AMGEN INC., priority 2020, published 2023)

Tests used:
HCT116 MTAP null cells = experiment: HCT116 proliferation assay, MTAP null cells (CellTiter-Glo, 6 days); type: cell-based; settings: HCT116-MTAP null, 144 h, read-out: Protif_ HCT116-MTAP null IC50
How it was run: (§1)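 Cells grown in RPMI 1640 + 10% FBS, plated overnight, then exposed for 6 days to 8- or 9-point 1:3 compound dilutions (top 1 or 10 µM) with DMSO control. Viability read by CellTiter-Glo luminescence.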

HCT116 WT cells = experiment: HCT116 proliferation assay, WT cells (CellTiter-Glo, 6 days); type: cell-based; settings: Homo sapiens, HCT-116, 144 h, read-out: Prolif_HCT116-WT IC50
How it was run: as §1

Row | SMILES | IC50 (HCT116 MTAP null cells) | IC50 (HCT116 WT cells)
1 | Cc1cc2cc(C(=O)N(Cc3ccc(N4CCOCC4)cn3)[C@H](C)c3ncccn3)ccc2nc1N [Example 764, (R)-2-amino-3-methyl-N-((5-morpholinopyridin-2-yl)methyl)-N-(1-(pyrimidin-2-yl)ethyl)quinoline-6-carboxamide] | 287 nM | 4220 nM
2 | C[C@H](c1ncccn1)N(Cc1ccc(C(F)(F)F)cn1)C(=O)c1ccc2nc(N)ccc2c1 [Example 765, (R)-2-amino-N-(1-(pyrimidin-2-yl)ethyl)-N-((5-(trifluoromethyl)pyridin-2-yl)methyl)quinoline-6-carboxamide] | 180 nM | 512 nM
3 | CC(c1cscn1)N(Cc1ccc(C(F)(F)F)nn1)C(=O)c1cnc2nc(N)c(Br)cc2c1 (centres unmarked) [Example 766, 7-amino-6-bromo-N-(1-(thiazol-4-yl)ethyl)-N-((6-(trifluoromethyl)pyridazin-3-yl)methyl)-1,8-naphthyridine-3-carboxamide] | 161 nM | 5900 nM
4 | C[C@H](c1ncccn1)N(Cc1ccc(Br)nn1)C(=O)c1ccc2nc(N)c(I)cc2c1 [Example 767, (R)-2-amino-N-((6-bromopyridazin-3-yl)methyl)-3-iodo-N-(1-(pyrimidin-2-yl)ethyl)quinoline-6-carboxamide] | 56 nM | 3550 nM
5 | C[C@H](c1ncccn1)N(Cc1ccc(Cl)cn1)C(=O)c1cnc2nc(N)c(I)cc2c1 [Example 768, (R)-7-amino-N-((5-chloropyridin-2-yl)methyl)-6-iodo-N-(1-(pyrimidin-2-yl)ethyl)-1,8-naphthyridine-3-carboxamide] | 116 nM | 3960 nM
6 | C[C@H](c1ncccn1)N(Cc1ccc(C#N)c(Cl)n1)C(=O)c1ccc2nc(N)c(I)cc2c1 [Example 769, (R)-2-amino-N-((6-chloro-5-cyanopyridin-2-yl)methyl)-3-iodo-N-(1-(pyrimidin-2-yl)ethyl)quinoline-6-carboxamide] | 52 nM | 5010 nM
7 | Cc1cc2c(C)c(C(=O)N(Cc3ccc(C(F)(F)F)cn3)[C@H](C)c3ncccn3)ccc2nc1N [Example 770, 2-amino-3,5-dimethyl-N-((1R)-1-(2-pyrimidinyl)ethyl)-N-((5-(trifluoromethyl)-2-pyridinyl)methyl)-6-quinolinecarboxamide] | 132 nM | 4750 nM
8 | COC[C@@H](C)N(Cc1ccc(C(F)(F)F)cn1)C(=O)c1ccc2nc(N)c(C)cc2c1C [Example 771, 2-amino-N-((2R)-1-methoxy-2-propanyl)-3,5-dimethyl-N-((5-(trifluoromethyl)-2-pyridinyl)methyl)-6-quinolinecarboxamide] | 270 nM | > 10000 nM
9 | CCOc1ccc(CN(C(=O)c2cnc3nc(N)c(I)cc3c2)[C@H](C)c2ncccn2)nn1 [Example 772, (R)-7-amino-N-((6-ethoxypyridazin-3-yl)methyl)-6-iodo-N-(1-(pyrimidin-2-yl)ethyl)-1,8-naphthyridine-3-carboxamide] | 437 nM | 17600 nM
10 | C[C@H](c1ncccn1)N(Cc1ccc(Cl)nn1)C(=O)c1ccc2nc(N)c(Br)cc2c1 [Example 773, (R)-2-amino-3-bromo-N-((6-chloropyridazin-3-yl)methyl)-N-(1-(pyrimidin-2-yl)ethyl)quinoline-6-carboxamide] | 304 nM | > 10000 nM
11 | N#CC[C@@H](C1CC1)N(Cc1ccc(C#N)cn1)C(=O)c1ccc2nc(N)c(Br)cc2c1 [Example 776, (S)-2-amino-3-bromo-N-(2-cyano-1-cyclopropylethyl)-N-((5-cyanopyridin-2-yl)methyl)quinoline-6-carboxamide] | 195 nM | 7220 nM
12 | C[C@H](c1ncccn1)N(Cc1cc2c(cn1)OCCC2)C(=O)c1ccc2nc(N)c(Br)cc2c1 [Example 777, (R)-2-amino-3-bromo-N-((3,4-dihydro-2H-pyrano[2,3-c]pyridin-6-yl)methyl)-N-(1-(pyrimidin-2-yl)ethyl)quinoline-6-carboxamide] | 372 nM | > 10000 nM
13 | N#CC[C@@H](C1CC1)N(Cc1ccc(C(F)(F)F)cn1)C(=O)c1ccc2nc(N)c(Br)cc2c1 [Example 778, (S)-2-amino-3-bromo-N-(2-cyano-1-cyclopropylethyl)-N-((5-(trifluoromethyl)pyridin-2-yl)methyl)quinoline-6-carboxamide] | 72 nM | 2050 nM
14 | COC[C@@H](C)N(Cc1ccc(OC)nn1)C(=O)c1ccc2nc(N)c(C)cc2c1 [Example 789, 2-amino-N-((2R)-1-methoxy-2-propanyl)-N-((6-methoxy-3-pyridazinyl)methyl)-3-methyl-6-quinolinecarboxamide] | 162 nM | 6150 nM
15 | Cc1cc2cc(C(=O)N(Cc3ccc(OCC(F)(F)F)nn3)[C@H](C)c3ncccn3)ccc2nc1N [Example 790, (R)-2-amino-3-methyl-N-(1-(pyrimidin-2-yl)ethyl)-N-((6-(2,2,2-trifluoroethoxy)pyridazin-3-yl)methyl) quinoline-6-carboxamide] | 156 nM | 5160 nM
16 | Cc1cc2cc(C(=O)N(Cc3ccc(OC(F)(F)F)nn3)C(C)c3ncccn3)ccc2nc1N (centres unmarked) [Example 791, 2-amino-3-methyl-N-(1-(pyrimidin-2-yl)ethyl)-N-((6-(trifluoromethoxy)pyridazin-3-yl)methyl)quinoline-6-carboxamide] | 60 nM | 1720 nM
17 | Cc1cc2cc(C(=O)N(Cc3cc4ccccc4cn3)C(C)c3ncccn3)ccc2nc1N (centres unmarked) [Example 792, 2-amino-N-(isoquinolin-3-ylmethyl)-3-methyl-N-(1-(pyrimidin-2-yl)ethyl)quinoline-6-carboxamide] | 119 nM | 3840 nM
18 | C[C@H](c1ncccn1)N(Cc1ccc(OCC(F)(F)F)nn1)C(=O)c1cnc2nc(N)c(Br)cc2c1 [Example 793, (R)-7-amino-6-bromo-N-(1-(pyrimidin-2-yl)ethyl)-N-((6-(2,2,2-trifluoroethoxy)pyridazin-3-yl)methyl)-1,8-naphthyridine-3-carboxamide] | 783 nM | > 10000 nM
19 | Cc1cc2cc(C(=O)N(Cc3ccc(C(F)(F)F)cn3)C(C)c3ncon3)ccc2nc1N (centres unmarked) [Example 795, N-(1-(1,2,4-oxadiazol-3-yl)ethyl)-2-amino-3-methyl-N-((5-(trifluoromethyl)pyridin-2-yl)methyl)quinoline-6-carboxamide] | 56 nM | 1390 nM
20 | Cc1nc(CN(C(=O)c2ccc3nc(N)c(Br)cc3c2)[C@H](C)c2ncccn2)ccc1C#N [Example 796, (R)-2-amino-3-bromo-N-((5-cyano-6-methylpyridin-2-yl)methyl)-N-(1-(pyrimidin-2-yl)ethyl)quinoline-6-carboxamide] | 308 nM | > 10000 nM
21 | Cc1cc2cc(C(=O)N(Cc3ccc(C(F)(F)F)cn3)C(C)c3ccnc(F)c3)ccc2nc1N (centres unmarked) [Example 797, 2-amino-N-(1-(2-fluoropyridin-4-yl)ethyl)-3-methyl-N-((5-(trifluoromethyl)pyridin-2-yl)methyl)quinoline-6-carboxamide] | 229 nM | 3820 nM
22 | Cc1cc2cc(C(=O)N(Cc3ccc(C(F)(F)F)cn3)[C@H](C)c3cccc(F)n3)ccc2nc1N [Example 799, (R)-2-amino-N-(1-(6-fluoropyridin-2-yl)ethyl)-3-methyl-N-((5-(trifluoromethyl)pyridin-2-yl)methyl)quinoline-6-carboxamide] | 13 nM | 301 nM
